Results from patent US7517902B2, “Substituted indazoles, compositions containing the same, and the preparation and use thereof” (Aventis Pharma S.A., priority 2004, dated 2009).
Counter-ions that a name gives are not always drawn.

Tests used:
Format in all cases: biochemical
human KDR enzyme = target: T1, human KDR enzyme (Homo sapiens, UniProt P35968); experiment: KDR substrate phosphorylation assay (scintillation, 96-well plate)
T1 construct: The cytoplasmic domain of the human KDR enzyme was cloned in the form of a GST fusion; GST; made in house; host or cells: SF21 insect cells (baculovirus, pFastBac)
T1 sequence (P35968 786-1356 limits assumed): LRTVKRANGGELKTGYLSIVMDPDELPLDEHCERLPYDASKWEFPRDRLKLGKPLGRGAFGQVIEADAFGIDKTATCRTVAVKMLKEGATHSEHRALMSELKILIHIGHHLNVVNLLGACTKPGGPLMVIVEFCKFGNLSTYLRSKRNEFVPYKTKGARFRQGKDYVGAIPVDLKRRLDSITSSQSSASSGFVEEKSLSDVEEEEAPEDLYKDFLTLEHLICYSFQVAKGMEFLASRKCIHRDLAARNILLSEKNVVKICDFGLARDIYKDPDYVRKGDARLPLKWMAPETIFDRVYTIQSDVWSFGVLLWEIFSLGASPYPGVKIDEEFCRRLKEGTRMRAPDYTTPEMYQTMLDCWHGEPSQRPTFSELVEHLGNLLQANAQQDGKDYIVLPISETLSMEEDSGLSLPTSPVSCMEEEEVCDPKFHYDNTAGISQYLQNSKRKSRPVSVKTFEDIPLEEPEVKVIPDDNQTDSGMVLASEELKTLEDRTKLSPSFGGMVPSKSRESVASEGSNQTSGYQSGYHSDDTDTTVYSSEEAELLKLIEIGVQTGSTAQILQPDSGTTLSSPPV
Procedure: The inhibitory effect of the compounds is determined in an assay of substrate phosphorylation by the KDR enzyme in vitro using a scintillation technique (96-well plate, NEN).
The cytoplasmic domain of the human KDR enzyme was cloned in the form of a GST fusion into the baculovirus expression vector pFastBac. The protein was expressed in SF21 cells and purified to approximately 60% homogeneity.
The KDR kinase activity is measured in 20 mM MOPS, 10 mM MgCl2, 10 mM MnCl2, 1 mM DTT, 2.5 mM EGTA, 10 mM β-glycerophosphate, pH=7.2, in the presence of 10 mM MgCl2, 100 μM Na3VO4, 1 mM NaF. 10 μl of the compound are added to 70 μl of kinase buffer, containing 100 ng of KDR enzyme at 4° C. The reaction is triggered by adding 20 μl of solution containing 2 μg of substrate (SH2-SH3 fragment of PLCγ expressed in the form of a GST fusion protein), 2 μCi γ^33P[ATP] and 2 μM cold ATP. After 1 hour of incubation at 37° C., the reaction is stopped by adding 1 volume (100 μl) of 200 mM EDTA. The incubation buffer is withdrawn and the wells are washed three times with 300 μl of PBS. The radioactivity is measured in each well using a Top Count NXT radioactivity counter (Packard).
The background noise is determined by measuring the radioactivity in four different wells containing the radioactive ATP and the substrate alone.
A control for total activity is measured in four different wells containing all of the reagents (γ^33P-[ATP], KDR and PLCγ substrate), but in the absence of compound.
The inhibition of KDR activity with the compound of the invention is expressed in percentage inhibition of the control activity determined in the absence of compound.
The compound SU5614 (Calbiochem) (1 μM) is included in each plate as an inhibition control.

human Tie2 = target: T2, human Tie2 (Homo sapiens, UniProt Q02763); experiment: Tie2 assay of PLC phosphorylation (FlashPlate); details: read-out: IC 50 TIE2
T2 construct: amino acids of the intracellular domain 776-1124; made in house
T2 sequence (Q02763 776-1124): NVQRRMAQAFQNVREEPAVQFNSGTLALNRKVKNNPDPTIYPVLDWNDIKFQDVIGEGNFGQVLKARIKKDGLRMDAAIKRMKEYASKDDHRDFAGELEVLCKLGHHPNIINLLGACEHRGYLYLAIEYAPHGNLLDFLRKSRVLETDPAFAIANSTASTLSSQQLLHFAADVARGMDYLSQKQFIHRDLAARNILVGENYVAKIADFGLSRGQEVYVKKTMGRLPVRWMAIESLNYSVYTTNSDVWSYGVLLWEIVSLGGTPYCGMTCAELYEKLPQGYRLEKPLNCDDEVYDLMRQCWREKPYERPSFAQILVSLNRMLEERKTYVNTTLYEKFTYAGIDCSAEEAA
Procedure: The coding sequence of human Tie2, corresponding to the amino acids of the intracellular domain 776-1124, was generated by PCR, using the cDNA isolated from human placenta as a model. This sequence was introduced into a baculovirus expression vector pFastBacGT in the form of a GST fusion protein.
The inhibitory effect of the molecules is determined in an assay of PLC phosphorylation by Tie2 in the presence of GST-Tie2 purified to approximately 80% homogeneity. The substrate is composed of the SH2-SH3 fragments of PLC expressed in the form of a GST fusion protein.
The kinase activity of Tie2 is measured in a 20 mM MOPS buffer, pH 7.2, containing 10 mM MgCl2, 10 mM MnCl2, 1 mM DTT, 10 mM of glycerol-phosphate. In a 96-well FlashPlate plate, kept on ice, a reaction mixture is deposited which is composed of 70 μl of kinase buffer containing 100 ng of GST-Tie2 enzyme per well. Subsequently 10 μl of the test molecule diluted to a concentration of 10% maximum in DMvSO are added. For a given concentration, each measurement is carried out in quadruplicate. The reaction is initiated by adding 20 μl of solution containing 2 μg of GST-PLC, 2 μM of cold ATP and 1 μCi of ^33P[ATP]. After 1 hour of incubation at 37° C., the reaction is terminated by adding 1 volume (100 μl) of 200 mM EDTA. Following removal of the incubation buffer, the wells are washed three times with 300 μl of PBS. The radioactivity is measured on a Wallac MicroBeta 1450.
The inhibition of Tie2 activity is calculated and expressed as a percentage inhibition relative to the control activity determined in the absence of compound.

Aurora2 = target: T3, Aurora2 (Homo sapiens, UniProt O14965); experiment: Aurora2 enzyme assay, NuMA substrate phosphorylation (Flashplate); details: read-out: IC 50 Aurora2
T3 construct: Aurora 2: whole recombinant protein comprising an N-terminal histidine tail; His tag (histidine tail) (N); made in house; host or cells: E. coli
T3 sequence (O14965 1-403): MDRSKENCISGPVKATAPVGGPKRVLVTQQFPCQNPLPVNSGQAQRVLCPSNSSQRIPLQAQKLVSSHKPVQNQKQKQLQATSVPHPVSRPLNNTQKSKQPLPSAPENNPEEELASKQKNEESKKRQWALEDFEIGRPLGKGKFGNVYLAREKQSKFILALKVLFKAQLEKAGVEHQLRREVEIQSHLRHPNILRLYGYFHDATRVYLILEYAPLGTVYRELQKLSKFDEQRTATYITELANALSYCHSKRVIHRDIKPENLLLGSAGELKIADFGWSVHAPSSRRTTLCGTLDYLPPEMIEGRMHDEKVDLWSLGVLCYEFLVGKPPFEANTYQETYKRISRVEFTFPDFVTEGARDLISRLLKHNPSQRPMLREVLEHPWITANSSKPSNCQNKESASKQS
Procedure: The inhibitory effect of compounds with respect to the kinases Aurora1 and Aurora2 is determined by an enzyme assay employing radioactivity detection.
The kinase activity of Aurora 1 and Aurora 2 is evaluated by the phosphorylation of the substrate Numa-histidine in the presence of radiolabeled ATP ([^33P]ATP), using 96-well Flashplate plates in which nickel chelate is fixed to the surface of the microplate. The amount of ^33P phosphate incorporated in the NuMA substrate is proportional to the activity of the enzyme Aurora1 or Aurora2.
The proteins are produced in the protein production laboratory of the SanofiAventis group.
Aurora 2: whole recombinant protein comprising an N-terminal histidine tail, expressed in E. coli and purified to more than 82%.
NuMA (nuclear protein that associates with the mitotic apparatus) fragment of 424 amino acids, expressed in E. coli, whose N-terminal end has been labeled with histidine and used as a substrate for the two Aurora enzymes.
The microplates used are 96-well Flash-Plate plates with nickel chelate (Perkin Elmer, model SMP107).
The products for evaluation are incubated in a reaction volume of 100 μL per well in the presence of 10 nM of Aurora 1 or Aurora 2, 500 nM of NuMA substrate in a buffer composed of 50 mM of Tris/HCl (pH 7.5), 50 mM NaCl, 5 mM MgCl2 (Aurora-B) or 10 mM MgCl2 (Aurora-A) and 1 mM of DTT, at 37° C.
In each well, 80 μL of the enzyme/substrate incubation buffer are distributed, followed by 10 μL of the product to be evaluated, in variable concentrations. The reaction is initiated by adding 1 μM of final ATP containing 0.2 μCi of [^33P]ATP (10 μL). After 30 minutes of incubation, the reaction is terminated by simply removing the reaction buffer and each well is washed twice with 300 μl of the Tris/HCl buffer. The radioactivity is then measured in each well by means of a scintillation apparatus, Packard, Top count model.
The control enzyme activity of Aurora is expressed by the number of counts per minute obtained within 30 minutes, after deduction of the background noise (reaction mixture not containing the enzyme). The evaluation of the various test products is expressed in percentage inhibition of the Aurora activity relative to the control.

IC50 (human KDR enzyme) [µM] | IC50 (human Tie2) [µM] | IC50 (Aurora2) [µM] | Compound
0.329 | 0.231 | 0.092 | Nc1n[nH]c2c(F)c(-c3ccc(NC(=O)Nc4cccc(C(F)(F)F)c4)cc3)ccc12 [Example 19, 1-[4-(3-Amino-7-fluoro-1H-indazol-6-yl)phenyl]-3-(3-trifluoromethylphenyl)urea]
0.166 | 0.018 | 0.171 | O=C(Nc1ccc(-c2ccc3c(NC(=O)c4ccsc4)n[nH]c3c2)cc1)Nc1cc(C(F)(F)F)ccc1F [Example 10, 1-(4-[3-[(Thiophen-3-yl)carbonylamino]-1H-indazol-6-yl}phenyl)-3-(2-fluoro-5-trifluoromethylphenyl)urea]
0.164 | 0.176 | 0.52 | O=CNc1n[nH]c2c(F)c(-c3ccc(NC(=O)Nc4cc(C(F)(F)F)ccc4F)cc3)ccc12 [Example 28, 1-(4-(7-Fluoro-3-formylamino-1H-indazol-6-yl}phenyl)-3-(2-fluoro-5-tri-fluoromethylphenyl)urea]
0.693 | 0.046 | 1.75 | O=C(Nc1ccc(-c2c(F)c(F)c3c(NC(=O)c4ccsc4)n[nH]c3c2F)cc1)Nc1cc(C(F)(F)F)ccc1F [Example 9, 1-(4-{4,5,7-Trifluoro-3-[(thiophen-3-yl)carbonylamino]-1H-indazol-6-yl}-phenyl)-3-(2-fluoro-5-trifluoromethylphenyl)urea]

Further lines, the compound ahead of its results:

Compound | IC50 (human KDR enzyme) [µM] | IC50 (human Tie2) [µM] | IC50 (Aurora2) [µM]
O=C(Nc1ccc(-c2ccc3c(NC(=O)C4CCCN4)n[nH]c3c2F)cc1)Nc1cc(C(F)(F)F)ccc1F [Example 26, 1-(4-{7-Fluoro-3-[(L-pyrrolidin-2-yl)carbonylamino]-1H-indazol-6-yl}phenyl)-3-(2-fluoro-5-trifluoromethylphenyl)urea] | 1.05 | 0.626 | 3.38
Cc1cc(-c2ccc3c(NC(=O)c4ccsc4)n[nH]c3c2F)ccc1NC(=O)Nc1cc(C(F)(F)F)ccc1F [Example 23, 1-(4-{7-Fluoro-3-[(thiophen-3-yl)carbonylamino]-1H-indazol-6-yl}-2-methylphenyl)-3-(2-fluoro-5-trifluoromethylphenyl)urea] | 0.015 | 0.016 | 0.296
Nc1n[nH]c2cc(-c3ccc(NC(=O)Nc4cc(C(F)(F)F)ccc4F)cc3)ccc12 [Example 1, 1-[4-(3-Amino-1H-indazol-6-yl)phenyl]-3-(2-fluoro-5-trifluoromethylphenyl)urea hydrochloride] | 0.033 | 1.78 | 0.113
